Data taken from PMC8241580 (Bioorganic Chemistry, 2021).
Several values for one entry are separate records, joined by “and”; a condition that tells them apart may be missing. Identical values can stand only once.

What was measured:
MCF7 cells [1] = assay: Cell cycle analysis by PI-flow cytometry; format: cell-based; conditions: MCF7, compound at its IC50; for DNA content (%) S: control 41.12; for DNA content (%) Pre-G1: control 1.49; for DNA content (%) G2/M: control 5.09; for DNA content (%) G0-G1: control 53.79
[2] = tested on: MCF7 (breast) cancer cell line; assay: MTT antiproliferative assay, MCF7; format: cell-based; conditions: for IC50: Homo sapiens, MCF7, 72 h, read-out: IC50 (μM) ± SE MCF7
SARS-CoV-2 = assay: Antiviral assay, virus-induced cytopathic effect; format: cell-based, SARS-CoV-2 (hCoV-19/Egypt/NRC-03/2020); conditions: CC50 VERO-E6 / IC50 SARS-CoV-2
[3] = tested on: chick embryo chorioallantoic membrane (CAM) blood vessels; assay: CAM assay; format: in vivo, chicken; conditions: 20 μl of 660 μM, 3 days of treatment, n = 4, vehicle control 14.00 ± 3.00
MCF7 cells [4] = assay: Annexin V-FITC apoptosis/necrosis study; format: cell-based; conditions: MCF7, compound at its IC50; for Apoptosis (%) Late: control 0.13; for Apoptosis (%) Early: control 0.49; for Necrosis: control 0.87; for Apoptosis (%) Total: control 1.49
VEGFR-2 = VEGFR-2 (Homo sapiens, UniProt P35968); assay: VEGFR-2; format: biochemical; conditions: for VEGFR-2 inhibitory potency relative to Sunitinib: ratio of IC50 values
VEGFR-2, sequence (P35968 20-1356): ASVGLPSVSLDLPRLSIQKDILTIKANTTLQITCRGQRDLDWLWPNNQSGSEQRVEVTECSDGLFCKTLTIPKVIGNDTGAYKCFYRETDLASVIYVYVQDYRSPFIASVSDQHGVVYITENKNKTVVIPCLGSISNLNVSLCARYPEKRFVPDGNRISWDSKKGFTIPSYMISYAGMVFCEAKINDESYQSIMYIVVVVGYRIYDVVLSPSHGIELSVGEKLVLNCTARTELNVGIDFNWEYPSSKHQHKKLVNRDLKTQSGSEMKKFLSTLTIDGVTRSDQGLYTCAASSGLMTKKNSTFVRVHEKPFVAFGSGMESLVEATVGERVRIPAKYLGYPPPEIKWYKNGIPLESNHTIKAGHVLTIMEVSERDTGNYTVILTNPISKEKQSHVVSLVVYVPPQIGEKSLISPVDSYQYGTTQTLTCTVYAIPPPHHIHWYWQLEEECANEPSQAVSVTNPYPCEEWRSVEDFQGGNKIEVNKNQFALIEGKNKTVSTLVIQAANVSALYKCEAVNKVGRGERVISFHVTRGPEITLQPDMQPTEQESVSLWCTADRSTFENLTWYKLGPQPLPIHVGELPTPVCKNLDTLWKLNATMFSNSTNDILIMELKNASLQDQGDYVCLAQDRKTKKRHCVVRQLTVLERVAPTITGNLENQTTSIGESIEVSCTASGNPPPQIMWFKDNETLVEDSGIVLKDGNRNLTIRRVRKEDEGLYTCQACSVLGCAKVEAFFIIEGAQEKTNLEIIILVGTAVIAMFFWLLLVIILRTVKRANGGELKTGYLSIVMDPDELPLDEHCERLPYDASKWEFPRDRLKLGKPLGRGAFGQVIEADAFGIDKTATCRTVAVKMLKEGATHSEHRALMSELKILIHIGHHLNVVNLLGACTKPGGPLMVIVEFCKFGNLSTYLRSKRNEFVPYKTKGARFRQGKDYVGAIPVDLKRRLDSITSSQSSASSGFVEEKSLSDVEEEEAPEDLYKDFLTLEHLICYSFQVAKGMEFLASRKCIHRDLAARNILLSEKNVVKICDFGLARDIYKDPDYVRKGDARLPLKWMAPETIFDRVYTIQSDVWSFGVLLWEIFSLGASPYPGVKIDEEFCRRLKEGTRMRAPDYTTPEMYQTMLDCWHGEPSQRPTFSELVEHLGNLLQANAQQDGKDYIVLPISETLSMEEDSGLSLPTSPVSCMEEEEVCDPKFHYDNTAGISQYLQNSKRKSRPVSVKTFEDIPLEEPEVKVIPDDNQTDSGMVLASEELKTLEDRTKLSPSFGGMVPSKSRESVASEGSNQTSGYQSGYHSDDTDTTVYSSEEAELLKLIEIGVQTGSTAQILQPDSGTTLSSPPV

c-kit = c-kit (Homo sapiens, UniProt P10721); assay: c-Kit ADP-Glo kinase assay; format: biochemical
c-kit, sequence (P10721 26-976): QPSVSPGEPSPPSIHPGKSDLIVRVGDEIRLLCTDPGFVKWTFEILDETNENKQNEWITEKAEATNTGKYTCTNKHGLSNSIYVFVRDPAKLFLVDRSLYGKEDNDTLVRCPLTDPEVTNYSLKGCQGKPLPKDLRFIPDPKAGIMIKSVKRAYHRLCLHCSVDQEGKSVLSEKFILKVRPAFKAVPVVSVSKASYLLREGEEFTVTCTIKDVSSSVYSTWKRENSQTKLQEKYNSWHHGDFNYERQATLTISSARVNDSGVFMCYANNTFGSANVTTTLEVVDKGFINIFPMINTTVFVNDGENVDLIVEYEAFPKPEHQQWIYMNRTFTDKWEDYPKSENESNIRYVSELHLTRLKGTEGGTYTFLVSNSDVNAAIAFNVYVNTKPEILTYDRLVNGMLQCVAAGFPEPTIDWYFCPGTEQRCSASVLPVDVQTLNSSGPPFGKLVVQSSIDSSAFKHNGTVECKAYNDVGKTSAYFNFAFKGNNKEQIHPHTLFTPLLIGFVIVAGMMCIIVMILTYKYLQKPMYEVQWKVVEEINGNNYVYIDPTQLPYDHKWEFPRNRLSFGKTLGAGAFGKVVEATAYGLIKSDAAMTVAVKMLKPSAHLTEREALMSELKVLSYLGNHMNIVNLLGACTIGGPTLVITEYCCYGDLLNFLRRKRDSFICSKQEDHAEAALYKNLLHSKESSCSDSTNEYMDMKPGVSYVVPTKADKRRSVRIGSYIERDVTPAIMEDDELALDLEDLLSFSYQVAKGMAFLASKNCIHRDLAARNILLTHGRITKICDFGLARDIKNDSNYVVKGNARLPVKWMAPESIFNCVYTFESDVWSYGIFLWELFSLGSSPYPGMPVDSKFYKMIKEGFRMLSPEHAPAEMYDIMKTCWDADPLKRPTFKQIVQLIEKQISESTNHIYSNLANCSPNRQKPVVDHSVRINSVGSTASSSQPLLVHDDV

[5] = tested on: HCT116 (colon) cancer cell line; assay: MTT antiproliferative assay, HCT116; format: cell-based; conditions: Homo sapiens, HCT-116, 72 h, read-out: IC50 (μM) ± SE HCT116
[6] = tested on: PaCa-2 (pancreatic) cancer cell line; assay: MTT antiproliferative assay, PaCa-2; format: cell-based; conditions: for IC50: PaCa-2, 72 h, read-out: IC50 (μM) ± SE PaCa-2; for Potency against PaCa2 relative to Sunitinib: ratio of IC50 values

| SMILES | DNA content (%) S (MCF7 cells [1]) | IC50 [2] | SI (Selectivity index/therapeutical index) = CC50/IC50 (SARS-CoV-2) | Mean diameter of blood vessels (mm ± SD) [3] | IC50 (VEGFR-2) | IC50 (c-kit) | IC50 [5] | IC50 [6] | Potency against PaCa2 relative to Sunitinib [6] | DNA content (%) G2/M (MCF7 cells [1]) | DNA content (%) G0-G1 (MCF7 cells [1]) | further results |
| --- | --- | --- | --- | --- | --- | --- | --- | --- | --- | --- | --- | --- |
| CCS(=O)(=O)N(c1ccc(C(=O)/C=C2/C(=O)Nc3ccccc32)cc1)S(=O)(=O)CC [Compound 10b, (E)-N-(Ethylsulfonyl)-N-{4-[2-(2-oxoindolin-3-ylidene)acetyl]phenyl}ethanesulfonamide] | 54.18% | 4.15 ± 0.78 µM | 165.6 | 2.70 ± 0.40 mm | 74.1 ± 7.4 nM | 185 ± 18.5 nM | 13.8 ± 1.06 µM | 5.08 ± 0.57 µM | ~3.3 folds |  |  | Cell cycle phase arrested (MCF7 cells [1]): arrest the tested cell at S phase; Increment in S phase relative to control (MCF7 cells [1]): about 13%; Apoptosis (%) Late (MCF7 cells [4]): 17.15%; Apoptosis (%) Early (MCF7 cells [4]): 4.03%; Necrosis (MCF7 cells [4]): 7.07%; Apoptosis (%) Total (MCF7 cells [4]): 28.25% |
| CCS(=O)(=O)N(c1ccc(C(=O)/C=C2/C(=O)Nc3ccc(Cl)cc32)cc1)S(=O)(=O)CC [Compound 10c, (E)-N-{4-[2-(5-Chloro-2-oxoindolin-3-ylidene)acetyl]phenyl}-N-(ethylsulfonyl)ethanesulfonamide] |  | 4.43 ± 0.47 µM | 75.5 | 5.0 mm and 5.00 ± 0.40 mm | 53.4 ± 5.3 nM | 81.7 ± 8.2 nM | > 50 µM | 6.18 ± 0.32 µM |  |  |  | Potency against MCF7 relative to Sunitinib ([2]; ratio of IC50 values): 0.9 fold; VEGFR-2 inhibitory potency relative to Sunitinib (VEGFR-2): 0.89 fold |
| CCN(CC)CCCC(C)Nc1ccnc2cc(Cl)ccc12 (stereo not drawn) [Chloroquine, reference compound] |  |  | 19.1 |  |  |  |  |  |  |  |  |  |
| CS(=O)(=O)Oc1ccc(C(=O)/C=C2/C(=O)Nc3ccccc32)cc1 [Compound 6a, (E)-4-[2-(2-Oxoindolin-3-ylidene)acetyl]phenyl methanesulfonate] | 43.25% | 6.85 ± 0.37 µM | 362.5 | 3.20 ± 1.00 mm | 54 ± 5.4 nM | 120 ± 12 nM | 16.4 ± 0.7 µM | 8.3 ± 0.44 µM |  | 2.67% | 54.08% | DNA content (%) Pre-G1 (MCF7 cells [1]): 34.71% |
| CCN(CC)CCNC(=O)c1c(C)[nH]c(/C=C2\C(=O)Nc3ccc(F)cc32)c1C [Sunitinib, reference compound] |  |  |  | 5 mm and 5.0 mm and 5.00 ± 0.71 mm |  |  | 5.03 ± 0.3 µM | 16.9 ± 0.95 µM |  |  |  |  |
| CCS(=O)(=O)Oc1ccc(C(=O)/C=C2/C(=O)Nc3ccccc32)cc1 [Compound 6b, (E)-4-[2-(2-Oxoindolin-3-ylidene)acetyl]phenyl ethanesulfonate] | 43.25% | 4.25 ± 0.23 µM | 23.8 | 5.10 ± 1.00 mm | 98.9 ± 9.9 nM | 248 ± 24.8 nM | 12.8 ± 1.41 µM | 5.6 ± 0.57 µM | three time folds | 2.67% | 54.08% | Cell cycle phase arrested (MCF7 cells [1]): arrests the cell cycle at G1/S phase; Decrease in cell population at G2/M relative to control (MCF7 cells [1]): 47.5%; Apoptosis (%) Late (MCF7 cells [4]): 22.91%; Apoptosis (%) Early (MCF7 cells [4]): 2.51%; Necrosis (MCF7 cells [4]): 9.29%; Apoptosis (%) Total (MCF7 cells [4]): 34.71% |
| CCN(CCO)CCCC(C)Nc1ccnc2cc(Cl)ccc12 (stereo not drawn) [Hydroxychloroquine, reference compound] |  |  | 12.2 |  |  |  |  |  |  |  |  |  |
| CS(=O)(=O)N(c1ccc(C(=O)/C=C2/C(=O)Nc3ccccc32)cc1)S(C)(=O)=O [Compound 10a, (E)-N-(Methylsulfonyl)-N-{4-[2-(2-oxoindolin-3-ylidene)acetyl]phenyl}methanesulfonamide] | 54.18% | 6.07 ± 0.83 µM | 7.4 | 3.50 ± 0.50 mm | 102 ± 10.2 nM | 103 ± 10.3 nM | 21 ± 1.75 µM | 6.91 ± 0.89 µM |  | 4.11% | 41.71% | DNA content (%) Pre-G1 (MCF7 cells [1]): 28.25% |
| CCS(=O)(=O)Oc1ccc(C(=O)/C=C2/C(=O)Nc3ccc(Cl)cc32)cc1 [Compound 6c, (E)-4-[2-(5-Chloro-2-oxoindolin-3-ylidene)acetyl]phenyl ethanesulfonate] |  | 4.28 ± 0.51 µM | 26.4 | 5.1 mm and 5.13 ± 0.90 mm | 36.9 ± 3.7 nM | 72.3 ± 7.2 nM | 5.33 ± 0.46 µM | 4.99 ± 0.29 µM | about 3.4 folds |  |  | VEGFR-2 inhibitory potency relative to Sunitinib (VEGFR-2): 1.3 fold |
| NC(=O)c1nc(F)c[nH]c1=O [Favipiravir, reference compound] |  |  | 1.9 |  |  |  |  |  |  |  |  |  |
